Assay results as given in article PMC11304238, “Formulate Adaptive Biphasic Scaffold via Sequential Protein‐Instructed Peptide Co‐Assembly” (Advanced Science, 2024).
Where a SMILES comes first, the peptide text is derived from it. [ ]: non-standard residue; d: D form. The star is where a group is joined. Acetyl(2-naphthyl) = O=C(Cc1ccc2ccccc2c1)*; pY = N[C@@H](Cc1ccc(OP(=O)(O)O)cc1)C(=O)O

Columns and labels:
[1] = test system: hMSCs; assay: hMSC biocompatibility (viability, caspase 3/7, Ki67); format: cell-based, human; details: 3-day treatment at various concentrations (25 to 500 µM), basal medium, WST-1 viability, caspase 3/7 and Ki67 at 200 µM, n = 3
Experimental: (§1) Cells were seeded onto a 96‐well flat‐bottom tissue culture plate (Corning, Falcon) at a density of 0.5 × 10^4 cells cm^−2 and incubated overnight to facilitate cell adhesion. The medium was then replaced with osteogenic medium containing various peptide compounds at concentrations ranging from 25 to 500 µM. As a control, cells were cultured in osteogenic medium supplemented with an equal volume of PBS. Subsequently, the cells were cultured for an additional 72 h, after which their viability was assessed using a WST‐1 assay kit (Roche Diagnostics, IN).
Figure S12. Chemical structure of peptide P6.
Figure S13. Chemical structure of peptide P7.
Figure S14. 3-day hMSCs viability upon the treatment of peptides P1, P2, P3, and control peptides P5, 1:1 mixture of P6/P7 at various concentrations in basal medium (mean ± SD, n = 3).
Figure S15. Bright field images and fluorescence images of hMSCs upon the treatment of peptides P1, P2, P3, and control peptides P5, 1:1 mixture of P6/P7 at 200 µM in basal medium for 3 days and stained with caspase 3/7 (green). […]
Figure S16. (a) Fluorescence images of hMSCs upon the treatment of peptides P1, P2, P3, and control peptides P5, 1:1 mixture of P6/P7 at 200 µM in basal medium for 3 days and co-stained with hochest (blue) and Ki67 (red). […] (b) Quantification of Ki67 positive ratio in hMSCs upon the treatments of panel a (mean ± SD, n = 3). […]

[2] = test system: hMSCs; format: cell-based, human; details: hMSCs pre-cultured 3 days with P3, P5 or P6/P7 (200 µM), then 3 days P4 at various concentrations, osteogenic medium, n = 3
Experimental: as §1
Figure S22. […]
(§2) Figure S23. Bright field images and fluorescence images of hMSCs upon the treatment of peptides P3, P5, and mixture of P6/P7 at a concentration of 200 µM for 3 days, followed with another 3-day treatment of P4 at a concentration of 200 µM in osteogenic medium. ‘Undifferentiated’ represents cell cultured in basal medium; ‘Ctrl’ represents cell cultured in osteogenic medium upon the treatment of 1xPBS buffer. […]
as §2, with “S24. (a) Fluorescence” for “S23. Bright field images and fluorescence”

| SMILES | biocompatibility with hMSCs [1] | cytotoxicity of P4 on pre-cultured hMSCs [2] |
| --- | --- | --- |
| O=C(Cc1ccc2ccccc2c1)N[C@@H](Cc1ccccc1)C(=O)N[C@@H](Cc1ccccc1)C(=O)O [P5, NapFF] | good biocompatibility |  |
| CC[C@H](C)[C@H](NC(=O)[C@H](CC(C)C)NC(=O)[C@H](CC(C)C)NC(=O)[C@H](CCCCN)NC(=O)[C@@H](NC(=O)[C@H](Cc1ccccc1)NC(=O)[C@H](Cc1ccccc1)NC(=O)[C@H](Cc1ccccc1)NC(=O)[C@H](CCCNC(=N)N)NC(=O)[C@H](CO)NC(=O)[C@H](CCCNC(=N)N)NC(=O)[C@@H](N)CCCCN)[C@@H](C)CC)C(=O)O [P3, KRSRFFFIKLLI] (H-KRSRFFFIKLLI-OH) | good biocompatibility |  |
| O=C(O)CC[C@H](NC(=O)[C@H](Cc1ccc(OP(=O)(O)O)cc1)NC(=O)[C@H](Cc1ccccc1)NC(=O)[C@H](Cc1ccccc1)NC(=O)Cc1ccc2ccccc2c1)C(=O)O [P4, NapFFYpE] ({Acetyl(2-naphthyl)}-FF[pY]E-OH) |  | no cytotoxicity |
